Data reported in paper PMC2584942, “Phase I dose escalation study of telatinib (BAY 57-9352) in patients with advanced solid tumours” (British Journal of Cancer, 2008).
Entries after “also recorded” stand apart in the source; their conditions may differ.

Test: Phase I dose escalation: study drug-related adverse events (NCI CTC v2.0), DLT, MTD
Type: in vivo
Procedure: Administration of telatinib was continued until an unacceptable toxicity, disease progression or death occurred or the consent was withdrawn. At start of the study, only a solution formulation was available. The formulation as tablet was introduced into the study after first pharmacokinetic results became available. Based on pharmacokinetic data, OD, two times daily (BID), and three times daily schedules were evaluated.
Three patients were initially enroled at each dose level. […] If any patient experienced a DLT, three additional patients were enroled at that dose level. If at least two out of six patients experienced a DLT, dose escalation had to be stopped and that dose was to be declared the toxic dose. The next lower dose level was defined as the MTD. […] In the course of the study the protocol was amended so that the onset of CTC grade 3 hypertension was only considered to be a DLT if the hypertension turned out to be refractory to standard antihypertensive treatment.
Adverse events were assessed at the end of each cycle and graded according to the National Cancer Institute Common Toxicity Criteria (NCI CTC), v2.0 ([Trotti et al, 2000]).
History, physical examinations, haematological and biochemical laboratory evaluations were performed at screening, on days 1, 7 and 14 of cycle 1 and on day 1 of subsequent cycles. Baseline objective tumour measurements were performed within 4 weeks prior to study treatment. Lesions at all disease sites were categorised as either measurable or nonmeasurable. Indicator lesions were selected and monitored throughout the study by the same assessor and using the same technique. Tumour response was evaluated according to the RECIST ([Therasse et al, 2000]).

[1] = continuous dosing 600 mg BID (N=7)
[2] = continuous dosing 900 mg BID (N=6)
[3] = continuous dosing 1200 mg BID (N=7)
[4] = continuous dosing 1500 mg BID (N=6)
[5] = noncontinuous dosing 600 mg BID (N=6)
[6] = noncontinuous dosing 900 mg BID (N=6)
[7] = noncontinuous dosing 1500 mg BID (N=6)
[8] = noncontinuous dosing 75–300 mg BID (N=27)

Compound: CNC(=O)c1cc(COc2nnc(Nc3ccc(Cl)cc3)c3ccoc23)ccn1 [telatinib]
- Patients with hypertension resulting in dose reduction and dose interruption (300 mg BID, 1500 mg BID noncontinuous and 1200 mg BID continuous dosing): three
- Patients with dose-limiting toxicities (1500 mg BID continuous dosing, first 21 days of treatment): no patient out of six patients; also recorded: none of the six patients
- Patients with dose-limiting toxicities (1500 mg BID noncontinuous dosing, grade 3 hypertension refractory to standard treatment): one out of six patients
- Incidence of patients with study drug-related adverse events, worst CTC grade 3: Abdominal pain or cramping (Total, all patients N=71): 2 (3) N(%)
- Incidence of patients with study drug-related adverse events, worst CTC grade 3: Any event (Total, all patients N=71): 18 (25) N(%)
- Incidence of patients with study drug-related adverse events, worst CTC grade 3: Dehydration (Total, all patients N=71): 1 (1) N(%)
- Incidence of patients with study drug-related adverse events, worst CTC grade 3: Diarrhoea, patients with colostomy (Total, all patients N=71): 1 (1) N(%)
- Incidence of patients with study drug-related adverse events, worst CTC grade 3: Diarrhoea, patients without colostomy (Total, all patients N=71): 4 (6) N(%)
- Incidence of patients with study drug-related adverse events, worst CTC grade 3: Hand–foot skin reaction (Total, all patients N=71): 1 (1) N(%)
- Incidence of patients with study drug-related adverse events, worst CTC grade 3: Hypertension (Total, all patients N=71): 16 (23) N(%)
- Incidence of patients with study drug-related adverse events, worst CTC grade 3: Rash/desquamation (Total, all patients N=71): 1 (1) N(%)
- Incidence of patients with study drug-related adverse events, worst CTC grades 1–2: Alopecia (Total, all patients N=71): 2 (3) N(%)
- Incidence of patients with study drug-related adverse events, worst CTC grades 1–2: Anorexia (Total, all patients N=71): 5 (7) N(%)
- Incidence of patients with study drug-related adverse events, worst CTC grades 1–2: Any event (Total, all patients N=71): 15 (21) N(%)
- Incidence of patients with study drug-related adverse events, worst CTC grades 1–2: Diarrhoea, patients without colostomy (Total, all patients N=71): 4 (6) N(%)
- Incidence of patients with study drug-related adverse events, worst CTC grades 1–2: Fatigue (Total, all patients N=71): 2 (3) N(%)
- Incidence of patients with study drug-related adverse events, worst CTC grades 1–2: Flatulence (Total, all patients N=71): 2 (3) N(%)
- Incidence of patients with study drug-related adverse events, worst CTC grades 1–2: Hypertension (Total, all patients N=71): 3 (4) N(%)
- Incidence of patients with study drug-related adverse events, worst CTC grades 1–2: Nausea (Total, all patients N=71): 3 (4) N(%)
- Incidence of patients with study drug-related adverse events, worst CTC grades 1–2: Voice changes/stridor/larynx (Total, all patients N=71): 5 (7) N(%)
- Incidence of patients with study drug-related adverse events, worst CTC grades 1–2: Vomiting (Total, all patients N=71): 2 (3) N(%)
- Patients dose reduced or discontinued permanently due to drug-related adverse events (all patients): nine out of 71
- Hypertension, study drug-related, CTC grade 3 (all patients N=71): 23%
- Hypertension, study drug-related, worst CTC grade 1–2 (all patients N=71): 4%
- Patients with at least one study drug-related adverse event, worst CTC grade 1–2 (all patients N=71): 21%
- Patients with at least one study drug-related adverse event, worst CTC grade 3 (all patients N=71): 25%
- Study drug-related adverse events of CTC grades 4 or 5 (all patients N=71): no study drug-related adverse events of CTC grades 4 or 5
- Diarrhoea, study drug-related, CTC grade 3 (all patients N=71 (with and without colostomy)): 7%
- Patients with serious study drug-related adverse events (all patients, diarrhoea, hypertension, hand–foot skin reaction and dehydration): five
- Incidence of patients with study drug-related adverse events, worst CTC grades 1–2: Any event [1]: 1 (14) N(%)
- Incidence of patients with study drug-related adverse events, worst CTC grades 1–2: Diarrhoea, patients without colostomy [1]: 1 (14) N(%)
- Incidence of patients with study drug-related adverse events, worst CTC grade 3: Any event [2]: 3 (50) N(%)
- Incidence of patients with study drug-related adverse events, worst CTC grade 3: Dehydration [2]: 1 (17) N(%)
- Incidence of patients with study drug-related adverse events, worst CTC grade 3: Diarrhoea, patients with colostomy [2]: 1 (17) N(%)
- Incidence of patients with study drug-related adverse events, worst CTC grade 3: Diarrhoea, patients without colostomy [2]: 1 (17) N(%)
- Incidence of patients with study drug-related adverse events, worst CTC grade 3: Hand–foot skin reaction [2]: 1 (17) N(%)
- Incidence of patients with study drug-related adverse events, worst CTC grade 3: Hypertension [2]: 2 (33) N(%)
- Incidence of patients with study drug-related adverse events, worst CTC grade 3: Rash/desquamation [2]: 1 (17) N(%)
- Incidence of patients with study drug-related adverse events, worst CTC grades 1–2: Alopecia [2]: 1 (17) N(%)
- Incidence of patients with study drug-related adverse events, worst CTC grades 1–2: Any event [2]: 2 (33) N(%)
- Incidence of patients with study drug-related adverse events, worst CTC grades 1–2: Nausea [2]: 1 (17) N(%)
- Incidence of patients with study drug-related adverse events, worst CTC grades 1–2: Voice changes/stridor/larynx [2]: 1 (17) N(%)
- Incidence of patients with study drug-related adverse events, worst CTC grade 3: Abdominal pain or cramping [3]: 1 (14) N(%)
- Incidence of patients with study drug-related adverse events, worst CTC grade 3: Any event [3]: 5 (71) N(%)
- Incidence of patients with study drug-related adverse events, worst CTC grade 3: Diarrhoea, patients without colostomy [3]: 2 (29) N(%)
- Incidence of patients with study drug-related adverse events, worst CTC grade 3: Hypertension [3]: 5 (71) N(%)
- Incidence of patients with study drug-related adverse events, worst CTC grades 1–2: Any event [3]: 1 (14) N(%)
- Incidence of patients with study drug-related adverse events, worst CTC grades 1–2: Flatulence [3]: 1 (14) N(%)
- Incidence of patients with study drug-related adverse events, worst CTC grades 1–2: Any event [4]: 2 (33) N(%)
- Incidence of patients with study drug-related adverse events, worst CTC grades 1–2: Diarrhoea, patients without colostomy [4]: 2 (33) N(%)
- Incidence of patients with study drug-related adverse events, worst CTC grades 1–2: Flatulence [4]: 1 (17) N(%)
- Incidence of patients with study drug-related adverse events, worst CTC grades 1–2: Hypertension [4]: 1 (17) N(%)
- Incidence of patients with study drug-related adverse events, worst CTC grades 1–2: Nausea [4]: 1 (17) N(%)
- Incidence of patients with study drug-related adverse events, worst CTC grades 1–2: Vomiting [4]: 1 (17) N(%)
- Maximum-tolerated dose (MTD) (continuous dosing, MTD not reached up to highest dose): > 1500 mg BID
- diastolic blood pressure, change from baseline (cycle 1, day 14 vs baseline): increase
- Patients with diarrhoea leading to dose reduction or interruption (dose levels of 900 mg BID or higher): four
- Patients with dose-limiting toxicities (grade 3 hypertension refractory to standard treatment, at 300 and 1500 mg BID noncontinuous dosing): two
- Maximum-tolerated dose (MTD) (human, in vivo): > 1500 mg BID
- Incidence of patients with study drug-related adverse events, worst CTC grade 3: Any event [5]: 3 (50) N(%)
- Incidence of patients with study drug-related adverse events, worst CTC grade 3: Hypertension [5]: 3 (50) N(%)
- Incidence of patients with study drug-related adverse events, worst CTC grades 1–2: Anorexia [5]: 1 (17) N(%)
- Incidence of patients with study drug-related adverse events, worst CTC grades 1–2: Any event [5]: 2 (33) N(%)
- Incidence of patients with study drug-related adverse events, worst CTC grades 1–2: Fatigue [5]: 2 (33) N(%)
- Incidence of patients with study drug-related adverse events, worst CTC grades 1–2: Voice changes/stridor/larynx [5]: 2 (33) N(%)
- Incidence of patients with study drug-related adverse events, worst CTC grade 3: Any event [6]: 2 (33) N(%)
- Incidence of patients with study drug-related adverse events, worst CTC grade 3: Hypertension [6]: 2 (33) N(%)
- Incidence of patients with study drug-related adverse events, worst CTC grades 1–2: Anorexia [6]: 1 (17) N(%)
- Incidence of patients with study drug-related adverse events, worst CTC grades 1–2: Any event [6]: 3 (50) N(%)
- Incidence of patients with study drug-related adverse events, worst CTC grades 1–2: Hypertension [6]: 1 (17) N(%)
- Incidence of patients with study drug-related adverse events, worst CTC grades 1–2: Voice changes/stridor/larynx [6]: 2 (33) N(%)
- Incidence of patients with study drug-related adverse events, worst CTC grade 3: Abdominal pain or cramping [7]: 1 (17) N(%)
- Incidence of patients with study drug-related adverse events, worst CTC grade 3: Any event [7]: 4 (67) N(%)
- Incidence of patients with study drug-related adverse events, worst CTC grade 3: Diarrhoea, patients without colostomy [7]: 1 (17) N(%)
- Incidence of patients with study drug-related adverse events, worst CTC grade 3: Hypertension [7]: 3 (50) N(%)
- Incidence of patients with study drug-related adverse events, worst CTC grades 1–2: Anorexia [7]: 2 (33) N(%)
- Incidence of patients with study drug-related adverse events, worst CTC grades 1–2: Any event [7]: 2 (33) N(%)
- Incidence of patients with study drug-related adverse events, worst CTC grades 1–2: Diarrhoea, patients without colostomy [7]: 1 (17) N(%)
- Incidence of patients with study drug-related adverse events, worst CTC grades 1–2: Hypertension [7]: 1 (17) N(%)
- Incidence of patients with study drug-related adverse events, worst CTC grades 1–2: Nausea [7]: 1 (17) N(%)
- Incidence of patients with study drug-related adverse events, worst CTC grades 1–2: Vomiting [7]: 1 (17) N(%)
- Incidence of patients with study drug-related adverse events, worst CTC grade 3: Any event [8]: 1 (4) N(%)
- Incidence of patients with study drug-related adverse events, worst CTC grade 3: Hypertension [8]: 1 (4) N(%)
- Incidence of patients with study drug-related adverse events, worst CTC grades 1–2: Alopecia [8]: 1 (4) N(%)
- Incidence of patients with study drug-related adverse events, worst CTC grades 1–2: Anorexia [8]: 1 (4) N(%)
- Incidence of patients with study drug-related adverse events, worst CTC grades 1–2: Any event [8]: 2 (7) N(%)
